These are literature values, as cited in US5281421A, “Gemfibrozil formulations” (Warner-Lambert Company, priority 1992, dated 1994).

SMILES strings stand for the structures.

The conditions of the data set: particularly in a highly acidic medium.

For the compound `Cc1ccc(C)c(OCCCC(C)(C)C(=O)O)c1` [Gemfibrozil, 5-(2,5-dimethylphenoxy)-2,2-dimethylpentanoic acid], the solubility in water result is “very poor solubility in water”.
